Assay results: ChEMBL document CHEMBL1124680, “Cyclic enkephalin analogues containing alpha-amino-beta-mercapto-beta,beta-pentamethylenepropionic acid at positions 2 or 5” (J Med Chem, 1989)

Columns and labels:
Cavia porcellus = species: Cavia porcellus; experiment: The compound was tested In vitro for the ability to inhibit electrically induced contractions of the guinea pig ileum; format: functional
[1] = molecular target: Kappa-type opioid receptor (Rattus norvegicus, UniProt P34975); experiment: The compound was tested for the ability to displace opioid receptor kappa specific radioligand [3H]DADLE
Mus musculus = species: Mus musculus; experiment: The compound was tested In vitro for the ability to inhibit electrically induced contractions of the mouse vas deferens; format: functional
[2] = molecular target: T1, Delta-type opioid receptor (Rattus norvegicus, UniProt P33533); experiment: The compound was tested for the ability to displace opioid receptor delta specific radioligand [3H]-DSLET
T1 sequence (P33533 whole entry): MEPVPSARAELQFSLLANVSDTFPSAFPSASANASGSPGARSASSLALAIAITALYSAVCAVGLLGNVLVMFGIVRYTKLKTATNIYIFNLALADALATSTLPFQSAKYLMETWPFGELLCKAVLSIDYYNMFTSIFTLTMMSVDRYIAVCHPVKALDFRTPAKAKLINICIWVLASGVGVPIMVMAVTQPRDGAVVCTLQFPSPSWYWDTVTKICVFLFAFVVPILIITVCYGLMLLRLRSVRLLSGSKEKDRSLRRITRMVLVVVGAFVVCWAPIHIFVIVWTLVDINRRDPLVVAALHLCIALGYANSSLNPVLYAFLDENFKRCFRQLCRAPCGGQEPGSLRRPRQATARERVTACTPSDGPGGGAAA

[3] = molecular target: T1, Delta-type opioid receptor; experiment: The compound was tested for the ability to displace receptor specific radioligand [3H]DPDPE
Mu-type opioid receptor [4] = molecular target: T2, Mu-type opioid receptor (Rattus norvegicus, UniProt P33535); experiment: The compound was tested for the ability to displace mu-receptor specific radioligand [3H]DAGO
T2 sequence (P33535 whole entry): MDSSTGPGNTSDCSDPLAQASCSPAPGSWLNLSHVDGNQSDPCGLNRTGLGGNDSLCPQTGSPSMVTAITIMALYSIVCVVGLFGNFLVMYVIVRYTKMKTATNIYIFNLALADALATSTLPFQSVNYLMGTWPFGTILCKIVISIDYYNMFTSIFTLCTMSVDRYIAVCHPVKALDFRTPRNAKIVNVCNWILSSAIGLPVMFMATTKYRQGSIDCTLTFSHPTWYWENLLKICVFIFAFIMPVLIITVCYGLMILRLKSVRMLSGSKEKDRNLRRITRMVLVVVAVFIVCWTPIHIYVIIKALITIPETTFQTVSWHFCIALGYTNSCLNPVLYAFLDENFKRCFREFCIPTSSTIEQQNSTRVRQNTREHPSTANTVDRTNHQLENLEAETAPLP

[5] = (§1) Ratio of inhibition of electrically induced contractions in GPI and MVD; format: functional
[6] = molecular target: T1, Delta-type opioid receptor; experiment: The compound was tested for the ability to displace delta-receptor specific radioligand [3H]DPDPE
[7] = molecular target: T1, Delta-type opioid receptor; experiment: The compound was tested for the ability to displace delta-receptor specific radioligand [3H]DSLET
Mu-type opioid receptor [8] = molecular target: T2, Mu-type opioid receptor; experiment: The compound was tested for the ability to displace Opioid receptor mu 1 specific radioligand [3H]DAGO
[9] = as §1

## CC1(C)SSC[C@H](C(=O)O)NC(=O)[C@H](Cc2ccccc2)NC(=O)CNC(=O)[C@@H]1NC(=O)[C@@H](N)Cc1ccc(O)cc1
Cavia porcellus; Cavia porcellus, Ileum
  IC50: 1350 nM
[1]
  Ki: […]

## CC1(C)SSC[C@@H](NC(=O)[C@@H](N)Cc2ccc(O)cc2)C(=O)NCC(=O)N[C@@H](Cc2ccccc2)C(=O)N[C@@H]1C(=O)O
Cavia porcellus; Cavia porcellus, Ileum
  IC50: 67 nM
[1]
  Ki: […]

## CC1(C)SSC[C@@H](NC(=O)[C@@H](N)Cc2ccc(O)cc2)C(=O)NCC(=O)N[C@@H](Cc2ccccc2)C(=O)N[C@H]1C(=O)O
Cavia porcellus; Cavia porcellus, Ileum
  IC50: 40 nM
[1]
  Ki: […]

## N[C@@H](Cc1ccc(O)cc1)C(=O)N[C@@H]1CSSC2(CCCCC2)[C@H](C(=O)O)NC(=O)[C@H](Cc2ccccc2)NC(=O)CNC1=O
Mus musculus; Mus musculus, Vas deferens
  IC50: 0.0564 nM

## N[C@@H](Cc1ccc(O)cc1)C(=O)N[C@@H]1CSSC2(CCCCC2)[C@@H](C(=O)O)NC(=O)[C@H](Cc2ccccc2)NC(=O)CNC1=O
Cavia porcellus; Cavia porcellus, Ileum
  IC50: 13.3 nM
Mus musculus; Mus musculus, Vas deferens
  IC50: 0.0745 nM

## N[C@@H](Cc1ccc(O)cc1)C(=O)N[C@H]1C(=O)NCC(=O)N[C@@H](Cc2ccccc2)C(=O)N[C@H](C(=O)O)CSSC12CCCCC2 (stereo in doubt; 5) [listing 1 of 2 here]
Cavia porcellus
  IC50: 29900 nM
Mus musculus
  IC50: > 2040 nM
[2]
  Ki: 31.3 nM
[3]
  Ki: 15 nM
Mu-type opioid receptor [4]
  Ki: 1800 nM

## N[C@@H](Cc1ccc(O)cc1)C(=O)N[C@H]1C(=O)NCC(=O)N[C@@H](Cc2ccccc2)C(=O)N[C@H](C(=O)O)CSSC12CCCCC2 (stereo in doubt; 5) [listing 2 of 2 here]
[5]
  Ratio: < 14.7

## N[C@@H](Cc1ccc(O)cc1)C(=O)N[C@H]1C(=O)NCC(=O)N[C@@H](Cc2ccccc2)C(=O)N[C@H](C(=O)O)CSSC12CCCCC2 (stereo in doubt; 6) [listing 1 of 2 here]
Cavia porcellus
  IC50: 70900 nM
Mus musculus
  IC50: > 4240 nM
[6]
  Ki: 387 nM
[7]
  Ki: 683 nM
Mu-type opioid receptor [8]
  Ki: 4010 nM

## N[C@@H](Cc1ccc(O)cc1)C(=O)N[C@H]1C(=O)NCC(=O)N[C@@H](Cc2ccccc2)C(=O)N[C@H](C(=O)O)CSSC12CCCCC2 (stereo in doubt; 6) [listing 2 of 2 here]
[9]
  Ratio: < 16.7
